In patent publication US9012655B2, “Antimicrobial/adjuvant compounds and methods” (Denouamed, Inc., priority 2011, dated 2015):
≈ marks a conversion by molar mass, not a printed value.

How the values were obtained:
AcpS enzyme = AcpS enzyme (Escherichia coli, UniProt P24224); assay: Measurement of AcpS inhibition ([3H]acetyl-CoA incorporation into apo-ACP); format: biochemical; conditions: % activity vs blank-subtracted counts
Procedure: [^3H]Acetyl-CoA was mixed as 1 volume of Perkin Elmer NET290 radiolabeled stock (e.g. 0.1 mCi/ml, 3.7 Ci/mmol in Na-acetate, pH 4.5-5.0=27 μM) with 1.2 volumes of 1 mM unlabelled acetyl-CoA (Sigma). Trichloroacetic acid was prepared as a 10% w/v solution. Bovine serum albumin was prepared as a 25 mg/ml solution in water. DTT was prepared as a 50 mM solution in water.
• 1. A standard reaction contained the following in a total volume of 10 μl:
• 2. Tubes were incubated at RT. [^3H]acetyl-CoA was added last to start the reaction. To stop the reaction, 2 μl was removed to a 1.5-ml microfuge tube containing 800 μl cold 10% TCA. Up to four time points were collected for each reaction, e.g. at 5 min, 10 min, 30 min, and 60 min. • 3. 20 μl of 25 mg/ml BSA was added to each tube, mixed and incubated on ice for 10 min, then centrifuged at 12,000 g for 5 min to form a pellet. Supernatant was removed using P1000. • 4. Each pellet was washed twice with 800 μl of cold 10% TCA each time, then centrifuged at 12,000 g for 5 min after each wash. The supernatant was discarded. Each pellet was resuspended in 50 μl of formic acid. The suspension was transferred to a scintillation vial and radioactivity was measured in 2 ml of liquid scintillation cocktail.
The random (stochastic) error in scintillation counting is proportional to the square root of the counts (not dpm) accumulated in the counting period; i.e. 10% for 100, 3.3% for 1,000, 1% for 10,000, etc. Provided radioactive counts (dpm) are in the thousands, the assay provides useful data. Results are reported in terms of % activity with respect to the blank-subtracted counts for working substrate. A % activity of less than about 40% is indicative of AcpS enzyme inhibition by the test compound at that concentration.

Ps. aeruginosa = assay: Combination MICs for antibiotic adjuvant potential; format: cell-based
Procedure: (§1) Susceptibilities to the compounds were determined using the National Committee for Clinical Laboratory Standards (NCCLS) M7-A6 broth microdilution method. Cation-adjusted Mueller-Hinton broth (Ca^2+, 25 μg/mL; Mg^2+, 12.5 μg/mL) microdilution panels were prepared to contain antimicrobial doubling dilution concentrations of an appropriate range. DMSO (dimethylsulfoxide) controls were incorporated into the panel to mimic the quantity of DMSO used in dissolving some of the compounds at the higher concentrations. Each final panel well volume was 100 μL with a bacterial inoculum of 5×10^5 CFU (colony forming units)/mL of the relevant bacterium. Panels were read following 16 to 20 h of incubation at 35 degrees Celsius in ambient air. The MIC (minimum inhibitory concentration) was defined as the lowest concentration of antimicrobial inhibiting visible growth.
Generally following the procedure of Example 9, MICs of ampicillin, erythromycin, and azithromycin were determined against Ps. aeruginosa. Parallel to this effort, solutions were prepared which were identical. To each of these were added 0.5 μL of stock solution of a given compound of the present invention, then diluted to produce a final concentration of 125 μM, 60 μM, and/or 30 μM for determination of adjuvant activity. Compounds were determined to be antibiotic adjuvants if the mixture produced a lower MIC than that of the antibiotic agent alone.

[1] = tested on: Enterococcus faecalis ATCC51299; assay: MIC panel of challenge pathogens (CLSI); format: cell-based; conditions: Enterococcus faecalis ATCC51299; for MIC: read-out: 100% inhibition; for MIC50: read-out: MIC50 (50%); for MIC80: read-out: MIC80 (80%)
Outline: (§2)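 Broth microdilution per CLSI guidelines. Final inoculum 2-8×10^5 CFU/ml, compounds serially two-fold diluted from 128 mg/L top concentration. Incubated in the dark at 30-37° C for 24-48 h, aerobic or anaerobic as appropriate. MIC read visually as 100% inhibition endpoint; MIC50 and MIC80 also reported.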

[2] = tested on: Staphylococcus aureus NRS383; assay: MIC panel of challenge pathogens (CLSI); format: cell-based; conditions: Staphylococcus aureus NRS383; for MIC: read-out: 100% inhibition; for MIC50: read-out: MIC50 (50%); for MIC80: read-out: MIC80 (80%)
Outline: as §2

[3] = tested on: Methicillin-Resistant Staph. aureus (MRSA); assay: MIC, NCCLS M7-A6 broth microdilution, MRSA; format: cell-based; conditions: 16 to 20 h, 35 degrees Celsius; for MIC: Staphylococcus aureus, MRSA
Procedure: as §1

[4] = tested on: Staphylococcus aureus EUP MRSA002; assay: MIC panel of challenge pathogens (CLSI), EUP MRSA002; format: cell-based; conditions: Staphylococcus aureus EUP MRSA002; for MIC / MIC50 / MIC80: EUPMRSA002; for MIC: read-out: 100% inhibition; for MIC50: read-out: MIC50 (50%); for MIC80: read-out: MIC80 (80%)
Procedure: The inocula for each bacterial strain were prepared by picking 5-10 distinct colonies from the culture plates and suspending them in the appropriate broth as per Clinical and Laboratory Standards Institute (CLSI) guidelines M07-A8, M24-A or M11-A7 as appropriate. The inoculum was resuspended by vigorous shaking on a vortex mixer for 15 s. The turbidity was then adjusted to McFarland standard 0.5 ([…]). The inoculum was further diluted in the appropriate media for MIC tests to give a final inoculum in each well of 2-8×10^5 CFU/ml. MICs were tested in the appropriate broth in accordance with the appropriate CLSI guidelines.
A stock solution of each compound was prepared at a concentration of 1.28 g/L in DMSO. The stock was further diluted in the appropriate media to give a top starting concentration of 128 mg/L in the assay. 100 μL of the appropriate media, as per CLSI guidelines, was dispensed into each well in columns 2-12. 200 μL of the each compound solution (at 256 mg/L) was dispensed into each well in column 1. 100 μL aliquots were pipetted from column 1 wells and dispensed into column 2 with a multichannel pipette (±2% coefficient of variation) thus diluting two-fold. 100 μL samples were then pipetted from column 2 wells and dispensed into column 3. The process was repeated through to column 10. The final 100 μL of diluted drug from column 10 was then discarded. Row 11 acted as a positive control (no compound, but organisms added), Row 12 acted as a negative control (no compound, and no organisms added).
100 μL of the appropriate inoculum suspension in the appropriate media, as per CLSI guidelines, was added to the appropriate wells. […] All plates were incubated in the dark under aerobic or anaerobic conditions at 30-37° C. for 24-48 hours, according to the appropriate CLSI guideline. Plates were read visually 24-48 hours post inoculation. Endpoints of 100% inhibition were determined (CLSI interpretation endpoints following visual examination).
MIC50, MIC80, and 100% inhibition results are reported below in μg/mL in the following Tables, indicating each compound tested against a given species and strain: […]

[5] = tested on: Streptococcus pneumoniae Group A; assay: MIC against Streptococcus pneumoniae Group A; format: cell-based; conditions: initial measurement, Todd Hewitt broth
Procedure: as §1
Generally following the procedure of Example 9, but using Todd Hewitt broth (beef heart digest) rather than Mueller-Hinton broth, MICs were initially measured against Streptococcus pneumoniae Group A for compounds of the present invention as follows: […]

Chain of AcpS enzyme (P24224 whole entry): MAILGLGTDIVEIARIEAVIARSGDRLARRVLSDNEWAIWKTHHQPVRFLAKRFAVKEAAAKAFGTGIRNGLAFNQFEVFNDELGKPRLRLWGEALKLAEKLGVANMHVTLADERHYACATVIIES

| Compound | activity at 50 µM (AcpS enzyme; test compound 50 uM) [%] | remaining activity at 500 µM (AcpS enzyme; test compound 500 uM) [%] | MIC [1] [mg/L] | MIC50 [1] [mg/L] | MIC80 [1] [mg/L] | MIC [2] [mg/L] | MIC50 [2] [mg/L] | MIC80 [2] [mg/L] | MIC [3] [µM] | MIC [4] [mg/L] | MIC50 [4] [mg/L] | MIC80 [4] [mg/L] | also measured |
| --- | --- | --- | --- | --- | --- | --- | --- | --- | --- | --- | --- | --- | --- |
| Fc1ccc(-c2cc(-c3nnn[nH]3)sc2-c2ccc(F)c3ccccc23)c2ccccc12 [DNM0537, 5-(4,5-Bis(4-fluoronaphthalen-1-yl)thiophen-2-yl)-1H-tetrazole] | 1.28 | 0.14 | 0.5 (≈ 1.14 µM) | 0.5 (≈ 1.14 µM) | 0.5 (≈ 1.14 µM) | ≤ 0.25 | ≤ 0.25 | ≤ 0.25 | 2 (≈ 0.881 µg/mL) | 1 (≈ 2.27 µM) | 0.5 (≈ 1.14 µM) | 1 (≈ 2.27 µM) | fold lower MIC for erythromycin (Ps. aeruginosa; compound at 30 μM): ≤ 7 fold |
| Cc1ccc(-c2cc(-c3nn[nH]n3)cc(-c3ccccc3-c3ccccc3)c2)c2ccccc12 [DNM0474] |  |  |  |  |  |  |  |  |  |  |  |  | % AcpS activity at 50 uM (AcpS enzyme; test compound 50 uM): 15.08%; % AcpS activity @ 500 uM (AcpS enzyme; test compound 500 uM): 0.3%; 100% inhibition [1]: 1 µg/mL; MIC50 (50%) [1]: 1 mg/L (≈ 2.28 µM); MIC80 (80%) [1]: 1 mg/L (≈ 2.28 µM); 100% inhibition [2]: 0.5 µg/mL; MIC50 (50%) [2]: 0.5 mg/L (≈ 1.14 µM); MIC80 (80%) [2]: 0.5 mg/L (≈ 1.14 µM); MIC MRSA [3]: 2 µM (≈ 0.877 µg/mL); 100% inhibition [4]: 0.5 µg/mL; MIC50 (50%) [4]: 0.5 mg/L (≈ 1.14 µM); MIC80 (80%) [4]: 0.5 mg/L (≈ 1.14 µM) |
| Cc1cc(Cl)ccc1-c1cc(-c2nnn[nH]2)sc1-c1ccc(C)c2ccccc12 [DNM0576, 5-(4-(4-Chloro-2-methylphenyl)-5-(4-methylnaphthalen-1-yl)thiophen-2-yl)-1H-tetrazole] | 5.88 | 0.15 | 1 (≈ 2.4 µM) | 1 (≈ 2.4 µM) | 1 (≈ 2.4 µM) | 0.5 (≈ 1.2 µM) | 0.5 (≈ 1.2 µM) | 0.5 (≈ 1.2 µM) | 4 (≈ 1.67 µg/mL) | 0.5 (≈ 1.2 µM) | 0.5 (≈ 1.2 µM) | 0.5 (≈ 1.2 µM) | MIC [5]: 0.5 µM (≈ 0.208 µg/mL) |
| Cc1ccc(Cl)cc1-c1cc(-c2nnn[nH]2)sc1-c1cc(Cl)ccc1C [DNM0508, 5-(4,5-Bis(5-chloro-2-methylphenyl)thiophen-2-yl)-1H-tetrazole] | 44.9 | 0.1 | 2 (≈ 4.98 µM) | 2 (≈ 4.98 µM) | 2 (≈ 4.98 µM) | 1 (≈ 2.49 µM) | 1 (≈ 2.49 µM) | 1 (≈ 2.49 µM) | 4 (≈ 1.61 µg/mL) | 1 (≈ 2.49 µM) | 1 (≈ 2.49 µM) | 1 (≈ 2.49 µM) |  |
| Cc1cc(Cl)ccc1-c1cc(-c2nnn[nH]2)sc1-c1ccc(Cl)cc1C [DNM0488, 5-(4,5-Bis(4-chloro-2-methylphenyl)thiophen-2-yl)-1H-tetrazole] | 11.5 | 0.32 | 0.5 (≈ 1.25 µM) | 0.5 (≈ 1.25 µM) | 0.5 (≈ 1.25 µM) | 0.5 (≈ 1.25 µM) | 0.5 (≈ 1.25 µM) | 0.5 (≈ 1.25 µM) | 4 (≈ 1.61 µg/mL) | 0.5 (≈ 1.25 µM) | 0.5 (≈ 1.25 µM) | 0.5 (≈ 1.25 µM) |  |
| Clc1ccc(-c2cc(-c3nnn[nH]3)sc2-c2ccc(Cl)cc2)cc1 [DNM0487, 5-(4,5-Bis(4-chlorophenyl)thiophen-2-yl)-1H-tetrazole] | 3.34 | 0.08 | 2 (≈ 5.36 µM) | 1 (≈ 2.68 µM) | 2 (≈ 5.36 µM) | 1 (≈ 2.68 µM) | 1 (≈ 2.68 µM) | 1 (≈ 2.68 µM) | 8 (≈ 2.99 µg/mL) | 1 (≈ 2.68 µM) | 1 (≈ 2.68 µM) | 1 (≈ 2.68 µM) | MIC (Ps. aeruginosa; Pseudomonas aeruginosa, compound alone, read-out: standalone MIC): > 2000 µM |
| CC(C)c1cc(Cl)ccc1-c1cc(-c2nnn[nH]2)sc1-c1ccc(Cl)cc1C(C)C [DNM0548, 5-(4,5-Bis(4-chloro-2-iso-propylphenyl)thiophen-2-yl)-1H-tetrazole] | 3.1 | 0.1 | ≤ 0.25 | ≤ 0.25 | ≤ 0.25 | ≤ 0.25 | ≤ 0.25 | ≤ 0.25 | 4 (≈ 1.83 µg/mL) | ≤ 0.25 | ≤ 0.25 | ≤ 0.25 | MIC [5]: < 0.25 µM; fold lower MIC for ampicillin (Ps. aeruginosa; compound at 125 μM): up to 125 fold; fold lower MIC for erythromycin (Ps. aeruginosa; compound at 125 μM): up to 125 fold |
